In ChEMBL document CHEMBL3507680, “University of Dundee, Gates Library screen for HepG2 cell viability”:

assay: Human HepG2 cell viability assay in 384 well format; type: toxicity, cell-based; set-up: dose 125 nL, time 70.5 hour; cytotoxicity at 70.5 h: concentration not given beside the values; conditions: HepG2 cells, read-out: Inhibition

Point of comparison: Cc1ccc(N2CCN(C3CCc4ccccc4C3)CC2)nn1 (stereo not drawn), cytotoxicity at 70.5 h -8.25%. Against it:
- O=C(NCc1ccncc1)C1=NOC2(CCCNC2)C1 (stereo not drawn) — higher, 14.2%
- Cc1cccc(CN2CCn3c(COc4ncccn4)nnc3C2)n1 — higher, 4.18%
- Cc1ccc(S(=O)(=O)NCC2COCc3c(C)nnn3C2)cc1F (stereo not drawn) — higher, 7.81%
- Cc1ccc(C(=O)N2CCn3c(COCC4CC4)cnc3C2C)s1 (stereo not drawn) — higher, -4.86%
- Cc1occc1C(=O)N1CCn2c(COCC3CC3)cnc2C1C (stereo not drawn) — lower, -9.85%
- CC1c2ncc(COCC3CC3)n2CCN1C(=O)c1ccn(C)n1 (stereo not drawn) — lower, -9.47%
- CC1c2ncc(COCC3CC3)n2CCN1C(=O)c1ccnn1C (stereo not drawn) — lower, -10.2%
- Cc1cc(C(=O)N2CCn3c(COCC4CCCC4)cnc3C2C)on1 (stereo not drawn) — lower, -15.4%
- CN(C)C(=O)CNC(=O)c1ccn(-c2ccc3ccccn23)n1 — lower, -8.61%
- Cc1cccc(N2CC3(CCN(C(=O)NC(C)C)C3)CC2=O)c1 (stereo not drawn) — lower, -9.16%
- N#Cc1cccc(N2CC3(CCN(C(=O)NC4CC4)C3)CC2=O)c1 (stereo not drawn) — higher, -4.14%
- CC(C)c1nccc([C@@H]2C[C@@H]3CCN(Cc4ccoc4)C[C@H]3O2)n1 — higher, -4.41%
- O=C(NCC1CC1)C1=NOC2(CCN(S(=O)(=O)Cc3ccccc3)C2)C1 (stereo not drawn) — higher, -5.14%
- CNC(=O)[C@H]1C[C@@H]2CN(C(=O)NCCc3ccccc3)C[C@H]1O2 — lower, -12%
- CN(C)CCO[C@H]1CN(C(=O)c2ccc(C#N)cc2)[C@@H]2COC[C@H]12 — lower, -11%
- O=C(NCc1ccccc1)[C@H]1C[C@@H]2CN(C(=O)NC3CCCC3)C[C@H]1O2 — higher, 16.8%
- N#Cc1cccc(N2CC3(CCN(C(=O)C4CC=CC4)C3)CC2=O)c1 (stereo not drawn) — lower, -9.81%
- Cc1ccc(S(=O)(=O)N2CCC3(CC(C(=O)NC4CCC4)=NO3)C2)cc1 (stereo not drawn) — higher, 18.4%
- CC(C)CNC(=O)N1C[C@H]2C[C@H](C(=O)NCc3ccccc3)[C@@H](C1)O2 — higher, 13.9%
- Cc1noc(C)c1C(=O)N1C[C@@H]2CN(Cc3cccnc3)CCO[C@@H]2C1 — higher, -7.03%
- Cc1nc([C@@H]2C[C@@H]3CCN(C(=O)Cc4cccc(F)c4)C[C@H]3O2)no1 — higher, -8%
- O=C(c1cnccn1)N1CCc2onc(Cn3cccn3)c2C1 — higher, -6.72%
- O=C1NCC2(CCCN(C(=O)c3c[nH]nc3C3CCCCC3)C2)O1 (stereo not drawn) — lower, -10.2%
- CCN1CC2(CCC1=O)CCN(C(=O)c1ccc(C)cc1O)CC2 — lower, -14.7%
- CN(Cc1cccc(-n2cccn2)c1)c1cc(N2CCCC2)nc(N)n1 — lower, -16.8%
- COCCCC1(C(=O)O)CCCN(Cc2ccccc2C)C1 (stereo not drawn) — higher, -4.89%
- Cn1cc2ncn(C3CCN(c4ccccc4F)CC3)c(=O)c2n1 — lower, -11%
- CCC1(CO)CCCN(C(=O)c2ccc(N3CCN(C)CC3)cc2)C1 (stereo not drawn) — higher, -4.46%
- O=C(NCc1ccc(CO)cc1)C1CCOc2ccccc2C1 (stereo not drawn) — higher, 4.54%
- COCc1cn(CC2CCN(Cc3nc(C)c[nH]3)CC2)nn1 — lower, -8.76%
- Cc1ccsc1C(=O)N1C[C@@H](C(=O)O)[C@H](C(C)C)C1 — higher, 0.968%
- CC(C)C(C(=O)N1CCC2(CC1)CN(C)C(=O)O2)c1ccccc1 (stereo not drawn) — lower, -8.69%
- CNc1nc(C)cc(N2CCC(C(=O)O)(n3ccc(C(C)C)n3)CC2)n1 — higher, -4.47%
- CN1CCN(Cc2nnc(C3CCN(S(C)(=O)=O)CC3)n2C)CC1 — lower, -20.6%
- CC(C)Cc1ncc2c(n1)CN(c1cc(NC3CC3)nc(N)n1)C2 — higher, 0.238%
- Cc1cccc(C)c1OC1CN(Cc2cnc(N3CCCC3)nc2)C1 — higher, 27.2%
- CO[C@H]1COC[C@@H]1NC(=O)C1(Oc2ccc(Cl)cc2)CCNCC1 — higher, -6.36%
- COCCN1CCC(C(=O)N(C)Cc2cccc(Cl)c2)C1 (stereo not drawn) — higher, 32%
- O=C(c1ccc2nccn2c1)N(CCO)Cc1ccccc1F — higher, 3.35%
- COCCCN1CCC(CNc2nccc(-c3cnn(C)c3)n2)C1 (stereo not drawn) — higher, -6.55%
- CCOCc1nc2c(c(N3CC=CC3)n1)CCN(CC1CC1)CC2 — higher, 9.81%
- Cc1ccc2oc(CN3CCn4nc(CCC(=O)O)cc4C3)c(C)c2c1 — higher, 32%
- COc1cccc2c1OCC(C(=O)NCCc1nnc(N)s1)C2 (stereo not drawn) — higher, -5.75%
- CCc1cc(N2CCC(N3CCSCC3)CC2)n2nccc2n1 — higher, -7.5%
- CCc1ccc(CCNc2ncnc3c2CCN(C(=O)C2CC2)C3)cc1 — higher, 7.48%
- Cc1cnc(C)c(N2C[C@H]3OC(=O)N(C4CCCC4)[C@H]3C2)n1 — higher, -6.45%
- CCCN1CCN(S(=O)(=O)c2ccccc2OC)[C@H]2CS(=O)(=O)C[C@H]21 — lower, -16.5%
- CN(C)CCNC(=O)c1ccc(S(=O)(=O)N[C@@H]2CCNC2)cc1 — lower, -13.7%
- CC(C)Cc1nc(CN2CCC3(CCCO3)CCC2=O)no1 (stereo not drawn) — higher, 0.922%
- COc1ccccc1OC1CCN(C(=O)c2cccc(O)c2C)CC1 — higher, -4.78%
- CCC(CC)CN(C)Cc1nc(-c2ccccc2NS(C)(=O)=O)oc1C — higher, -5.33%
- CC(CCn1cccn1)N1CCC(n2cc(C(C)(C)N)nn2)CC1 (stereo not drawn) — higher, 1.2%
- COCCN1CCN(c2nc(C3CCCC3)nc3c2cnn3C)CC1 — lower, -16.1%
- O=C1NCCCC12CCN(S(=O)(=O)N1CCOCC1)C2 (stereo not drawn) — higher, -6.49%
- CN(C)Cc1ccccc1CN(C)C(=O)c1ccoc1 — higher, -8.04%
- Cc1nn(C)c2ncnc(N3CCCC(OCc4cccnc4)C3)c12 (stereo not drawn) — higher, -3.45%
- CCc1cnc(C)nc1NCc1cnc2c(c1)CCC2 — lower, -9.06%
- CC(C)c1cc(NCC2(Cn3cccn3)CC2)n2nccc2n1 — higher, 5.08%
- CCS(=O)(=O)c1ncc(CN2CCN(C)CC2)n1CCc1ccccc1 — higher, -3.88%
- CCC(c1nc(CC(C)C)nn1-c1ccccn1)n1cccn1 (stereo not drawn) — lower, -12.3%
- CC(=O)c1cc(CC(=O)NCc2cccc(F)c2F)cs1 — higher, -8.12%
- Cc1nc(N(C)C)nc(N(C)Cc2cnccn2)c1C — lower, -9.41%
- Cn1c(CN2CCCC2)nnc1C1CCCN(C(=O)N2CCOCC2)C1 (stereo not drawn) — higher, -3.17%
- CCS(=O)(=O)N1CCC(c2nccn2Cc2ccccn2)CC1 — higher, -5.3%
- CC(C)NS(=O)(=O)c1cc(C(=O)O)cc(-c2ccccc2C#N)c1 — higher, 6.18%
- Cc1ccc(C)c2c(O)cc(CN[C@H]3CCCCNC3=O)nc12 — higher, -6.91%
- O=C(NC1CC(=O)N(C2Cc3ccccc3C2)C1)c1ccoc1 (stereo not drawn) — higher, -2.92%
- CC(C)OC(=O)N1CCCCC1CCn1cccn1 (stereo not drawn) — higher, -7.8%
- CCc1nc(NC(=O)NCCc2scnc2C)nn1C — higher, 16.5%
- Cc1cc(C)n(C2CCN(Cc3c(-c4cc(C)on4)nn(C)c3Cl)C2)n1 (stereo not drawn) — higher, -6.11%
- Cc1cccn2c(CC(=O)N3CCC(Oc4ncccn4)CC3)cnc12 — higher, 25.3%
- CCc1[nH]c2c(CNc3cncc(C(=O)OC)n3)cc(C)cc2c1C — higher, 20.4%
- CCc1ncc(C(=O)N2CC(N3CCCCC3)C2)cn1 — higher, 25.6%
- CC(C)(O)CCc1cccc(C(=O)NCC2COCCO2)c1 (stereo not drawn) — higher, -1.78%
- C=C(C)COc1ccc(C(=O)NCCn2c(C)cc(C)nc2=O)cc1 — higher, -6.24%
- CCN1CCN(S(=O)(=O)N2CCCC2)[C@H]2CS(=O)(=O)C[C@H]21 — higher, -3.04%
- Cc1cccc2cc(CN3CCC(N4CCOCC4)CC3)c(=O)[nH]c12 — higher, -5.31%
- CCN(CC)C(=O)[C@@H]1C[C@@H](n2cc(-c3ccccn3)nn2)CN1 — higher, -3.65%
- O=S(=O)(c1c(Cl)nc2sccn12)N1CCCC2(CCNC2)C1 (stereo not drawn) — higher, -7.18%
- CCOCC(=O)N1CCC(c2nccn2C)CC1 — higher, 2.76%
- Cc1cc(C(=O)N2CC[C@H](N3CCOCC3)[C@H](CCCO)C2)c(C)n1C — lower, -16.1%
- CC[C@H]1COCCN1C(=O)CCCn1nnc(-c2ccc(F)cc2)n1 — higher, -1.69%
- CC(=O)NC1CCN(c2nc(C)nc3c2c(C)nn3C)C1 (stereo not drawn) — higher, 20.8%
- CN(CC1Cc2ccccc2CN1C)C(=O)CSc1ccccn1 (stereo not drawn) — lower, -15.7%
- O=C(O)[C@@H]1CN(C(=O)Cc2ccccc2Cl)C[C@H]1C1CC1 — lower, -15.8%
- O=C(C1CC=CC1)N1C[C@@H](OCc2cccnc2)[C@H]2OCCC[C@H]21 — higher, 11.2%
- O=C(N1CCCC1)N1C[C@@H](OCc2cccnc2)[C@H]2OCCC[C@H]21 — higher, 12.7%
- Cc1nc(CN2CCO[C@@H]3CN(C(=O)CC4CC4)C[C@@H]3C2)cs1 — higher, -1.45%
- CN(C)CCNC(=O)c1ccn(-c2ccc3ccccn23)n1 — higher, -6.93%
- O=C(NCCN1CCOCC1)c1ccn(-c2ccc3ccccn23)n1 — higher, -1.69%
- COCCN1CCc2c(cnc(-c3ccoc3)c2C(=O)O)C1 — lower, -12.1%
- Cc1ccc(C(=O)N2CCC3(CC2)COC(COc2cccnc2)C3)o1 (stereo not drawn) — higher, -7.65%
- c1cc(CN2CCc3c(nnn3CC3CC3)C2COCC2CC2)co1 (stereo not drawn) — lower, -14%
- C1CC(CN2CCc3c(nnn3CC3CC3)C2COCC2CC2)C1 (stereo not drawn) — lower, -8.97%
- O=C(c1ccco1)N1C[C@H]2CCCN(Cc3ccc(F)cc3)[C@H]2C1 — lower, -9.54%
- Cc1ccc(CN2CCC[C@@H]3CN(C(=O)c4ccco4)C[C@@H]32)s1 — lower, -11%
- Cn1cc(CN2CCCC23CCN(C(=O)c2cccs2)CC3)cn1 — lower, -11.6%
- Cc1ccc(CN2Cc3nnn(C)c3C(COCc3ccccc3)C2)o1 (stereo not drawn) — higher, -8.1%
- Cc1nc(CN2CCO[C@@H]3CN(Cc4ccsc4)C[C@@H]3C2)cs1 — higher, 0.892%
- COCC1c2nnn(CC3CC3)c2CCN1Cc1ccncc1 (stereo not drawn) — higher, -8.11%
- O=C(c1cccnc1)N1CCC2(CC1)COC(COc1ccccn1)C2 (stereo not drawn) — lower, -11.7%
- Cn1nnc2c1CCN(Cc1ccncc1)C2COCC1CC1 (stereo not drawn) — lower, -9.81%
- Cc1ccc(CN2CCC3(CC2)NC(=O)CC3c2ccncc2)cc1C (stereo not drawn) — higher, -3.31%
- O=C(c1ccco1)N1C[C@H]2CCCN(Cc3ccncc3)[C@H]2C1 — higher, -3.44%
- COCC1CC2(CCN(Cc3cccc(C#N)c3)CC2)CN1C(C)C (stereo not drawn) — higher, -4.89%
- c1ccc(CN2CCc3nnc(COc4ccccn4)n3CC2)nc1 — higher, 13.9%
- CN(C)CCOCC1CN(Cc2cccs2)Cc2ccnn2C1 (stereo not drawn) — lower, -9.15%
